Assay: Inhibition of Influenza A/California/04/09 H1N1 PA endonuclease (1 to 204 residues) expressed in Escherichia coli BL21 (RIL) cells using (6-FAM)TGGCAATATCAGCTCCACA(MGBNFQ) DNA probe as substrate measured after 5 to 90 mins by fluorescence assay
Design: species or system Influenza A virus (A/California/04/2009(H1N1))

| SMILES | IC50 [µM] |
| --- | --- |
| O=c1[nH]cc(Br)cc1O | 16 |
| O=C(O)c1ccc(-c2cc(O)c(=O)[nH]c2-c2ccc(F)cc2)cc1 | 0.011 |
